Experimental data published in US20100261723A1, “TRISUBSTITUTED PYRIMIDINE DERIVATIVES FOR THE TREATMENT OF PROLIFERATIVE DISEASES” (ASTRAZENECA AB, priority 2007, published 2010).
pIC50: −log10 of the molar value.

Molecular target: T1, mTOR kinase (Homo sapiens, UniProt P42345)
T1 construct: FLAG; made in house
Assay: In vitro mTOR kinase assay, Test (a)(i) (AlphaScreen)
Format: biochemical
Details: recombinant FLAG-tagged mTOR (1362-2549), ATP 20 μM; read-out: Test (a)(i) IC50
Method: (a)(i) In Vitro mTOR Kinase Assay
A C-terminal truncation of mTOR encompassing amino acid residues 1362 to 2549 of mTOR (EMBL Accession No. L34075) was stably expressed as a FLAG-tagged fusion in HEK293 cells as described by Vilella-Bach et al., […], 1999, 274, 4266-4272. The HEK293 FLAG-tagged mTOR (1362-2549) stable cell line was routinely maintained at 37° C. with 5% CO2 up to a confluency of 70-90% in Dulbecco's modified Eagle's growth medium (DMEM; Invitrogen Limited, Paisley, UK Catalogue No. 41966-029) containing 10% heat-inactivated foetal calf serum (FCS; Sigma, Poole, Dorset, UK, Catalogue No. F0392), 1% L-glutamine (Gibco, Catalogue No. 25030-024) and 2 mg/ml Geneticin (G418 sulfate; Invitrogen Limited, UK Catalogue No. 10131-027). Following expression in the mammalian HEK293 cell line, expressed protein was purified using the FLAG epitope tag using standard purification techniques.
A 30 μl mixture of recombinant purified mTOR enzyme, 1 μM biotinylated peptide substrate (Biotin-Ahx-[…]NH2; Bachem UK Ltd), ATP (20 μM) and a buffer solution [comprising Tris-HCl pH7.4 buffer (50 mM), EGTA (0.1 mM), bovine serum albumin (0.5 mg/mL), DTT (1.25 mM) and manganese chloride (10 mM)] was agitated at room temperature for 90 minutes.
These assay solutions were incubated for 2 hours at room temperature.
Phosphorylated biotinylated peptide is formed in situ as a result of mTOR mediated phosphorylation. The phosphorylated biotinylated peptide that is associated with AlphaScreen Streptavidin donor beads forms a complex with the p70 S6 Kinase (T389) 1A5 Monoclonal Antibody that is associated with Alphascreen Protein A acceptor beads. […] Accordingly, the presence of mTOR kinase activity results in an assay signal. In the presence of an mTOR kinase inhibitor, signal strength is reduced.

T1 sequence (P42345 1362-2549): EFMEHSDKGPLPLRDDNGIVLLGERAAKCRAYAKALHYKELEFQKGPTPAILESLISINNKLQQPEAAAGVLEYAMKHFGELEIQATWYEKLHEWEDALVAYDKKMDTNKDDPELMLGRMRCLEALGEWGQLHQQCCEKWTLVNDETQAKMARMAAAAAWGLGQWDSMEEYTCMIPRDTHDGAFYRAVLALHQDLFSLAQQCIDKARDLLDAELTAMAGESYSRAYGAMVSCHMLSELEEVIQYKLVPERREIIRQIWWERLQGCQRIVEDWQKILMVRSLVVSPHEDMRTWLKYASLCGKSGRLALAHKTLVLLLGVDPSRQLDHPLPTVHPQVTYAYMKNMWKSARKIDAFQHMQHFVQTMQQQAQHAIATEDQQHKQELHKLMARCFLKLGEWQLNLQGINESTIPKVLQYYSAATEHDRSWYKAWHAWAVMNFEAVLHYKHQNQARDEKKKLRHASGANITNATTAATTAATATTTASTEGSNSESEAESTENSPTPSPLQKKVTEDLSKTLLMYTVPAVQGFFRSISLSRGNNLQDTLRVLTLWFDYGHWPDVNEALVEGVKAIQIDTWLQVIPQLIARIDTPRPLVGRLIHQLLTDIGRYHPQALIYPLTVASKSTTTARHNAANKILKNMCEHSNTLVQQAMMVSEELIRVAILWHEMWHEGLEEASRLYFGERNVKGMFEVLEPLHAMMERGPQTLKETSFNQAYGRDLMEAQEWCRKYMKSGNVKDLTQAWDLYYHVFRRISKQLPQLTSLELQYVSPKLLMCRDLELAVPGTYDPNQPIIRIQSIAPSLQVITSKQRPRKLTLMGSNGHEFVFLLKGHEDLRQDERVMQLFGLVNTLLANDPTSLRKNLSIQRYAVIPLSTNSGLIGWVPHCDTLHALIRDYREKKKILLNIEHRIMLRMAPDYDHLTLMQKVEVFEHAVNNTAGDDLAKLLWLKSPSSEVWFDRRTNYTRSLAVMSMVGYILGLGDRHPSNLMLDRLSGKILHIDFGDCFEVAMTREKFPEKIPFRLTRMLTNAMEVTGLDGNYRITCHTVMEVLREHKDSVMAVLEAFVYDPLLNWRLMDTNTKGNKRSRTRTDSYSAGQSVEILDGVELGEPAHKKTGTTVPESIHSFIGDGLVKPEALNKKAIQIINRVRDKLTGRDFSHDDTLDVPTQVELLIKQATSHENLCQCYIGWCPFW

Structure (SMILES)	pIC50
CC(=O)Nc1ccc(-c2nc(CS(C)(=O)=O)cc(N3CCOCC3)n2)cc1CO [Example 1, N-[2-(Hydroxymethyl)-4-[4-(methylsulfonylmethyl)-6-morpholin-4-yl-pyrimidin-2-yl]phenyl]acetamide]	6.79
C[C@H]1COCCN1c1cc(CS(C)(=O)=O)nc(-c2ccc(NC(=O)c3ccno3)cc2)n1 [Example 2, N-[4-[4-[(3S)-3-Methylmorpholin-4-yl]-6-(methylsulfonylmethyl)pyrimidin-2-yl]phenyl]-1,2-oxazole-5-carboxamide]	7.04
C[C@H]1COCCN1c1cc(CS(C)(=O)=O)nc(-c2ccc(NC(=O)CO)cc2)n1 [Example 3, 2-Hydroxy-N-[4-[4-[(3S)-3-methylmorpholin-4-yl]-6-(methylsulfonylmethyl)pyrimidin-2-yl]phenyl]acetamide]	6.62
CC(=O)Nc1ccc(-c2nc(CS(C)(=O)=O)cc(N3CCOCC3)n2)cc1 [Example 4, N-[4-[4-(Methylsulfonylmethyl)-6-morpholin-4-yl-pyrimidin-2-yl]phenyl]acetamide]	6.03
CS(=O)(=O)Cc1cc(N2CCOCC2)nc(-c2ccc(NC(=O)c3ccccc3)cc2)n1 [Example 4a, N-[4-[4-(methylsulfonylmethyl)-6-morpholin-4-yl-pyrimidin-2-yl]phenyl]benzamide]	4.82
CS(=O)(=O)Cc1cc(N2CCOCC2)nc(-c2ccc(NC(=O)C3CCC3)cc2)n1 [Example 5, N-[4-[4-(Methylsulfonylmethyl)-6-morpholin-4-yl-pyrimidin-2-yl]phenyl]cyclobutanecarboxamide]	5.93
CCC(=O)Nc1ccc(-c2nc(CS(C)(=O)=O)cc(N3CCOCC3)n2)cc1 [Example 5a, N-[4-[4-(methylsulfonylmethyl)-6-morpholin-4-yl-pyrimidin-2-yl]phenyl]propanamide]	6.19
CS(=O)(=O)Cc1cc(N2CCOCC2)nc(-c2ccc(NC(=O)CCC3CC3)cc2)n1 [Example 5aa, 3-cyclopropyl-N-[4-[4-(methylsulfonylmethyl)-6-morpholin-4-yl-pyrimidin-2-yl]phenyl]propanamide]	5.30
CS(=O)(=O)Cc1cc(N2CCOCC2)nc(-c2ccc(NC(=O)C3(C(N)=O)CC3)cc2)n1 [Example 5ab, N′-[4-[4-(methylsulfonylmethyl)-6-morpholin-4-yl-pyrimidin-2-yl]phenyl]cyclopropane-1,1-dicarboxamide]	5.18
CS(=O)(=O)Cc1cc(N2CCOCC2)nc(-c2ccc(NC(=O)C3CCOCC3)cc2)n1 [Example 5ac, N-[4-[4-(methylsulfonylmethyl)-6-morpholin-4-yl-pyrimidin-2-yl]phenyl]oxane-4-carboxamide]	5.27
CC(=O)NCCC(=O)Nc1ccc(-c2nc(CS(C)(=O)=O)cc(N3CCOCC3)n2)cc1 [Example 5ad, 3-acetamido-N-[4-[4-(methylsulfonylmethyl)-6-morpholin-4-yl-pyrimidin-2-yl]phenyl]propanamide]	5.40
CS(=O)(=O)Cc1cc(N2CCOCC2)nc(-c2ccc(NC(=O)c3cc[nH]n3)cc2)n1 [Example 5ae, N-[4-[4-(methylsulfonylmethyl)-6-morpholin-4-yl-pyrimidin-2-yl]phenyl]-1H-pyrazole-3-carboxamide]	5.74
Cc1cc(C(=O)Nc2ccc(-c3nc(CS(C)(=O)=O)cc(N4CCOCC4)n3)cc2)n(C)n1 [Example 5af, 2,5-dimethyl-N-[4-[4-(methylsulfonylmethyl)-6-morpholin-4-yl-pyrimidin-2-yl]phenyl]pyrazole-3-carboxamide]	5.00
CS(=O)(=O)Cc1cc(N2CCOCC2)nc(-c2ccc(NC(=O)C3=COCCC3)cc2)n1 [Example 5ag, N-[4-[4-(methylsulfonylmethyl)-6-morpholin-4-yl-pyrimidin-2-yl]phenyl]-5,6-dihydro-4H-pyran-3-carboxamide]	5.56
CS(=O)(=O)Cc1cc(N2CCOCC2)nc(-c2ccc(NC(=O)CCc3c[nH]cn3)cc2)n1 [Example 5ah, 3-(1H-imidazol-4-yl)-N-[4[4-(methylsulfonylmethyl)-6-morpholin-4-yl-pyrimidin-2-yl]phenyl]propanamide]	5.56
CS(=O)(=O)Cc1cc(N2CCOCC2)nc(-c2ccc(NC(=O)Cc3ccco3)cc2)n1 [Example 5ai, 2-(2-furyl)-N-[4-[4-(methylsulfonylmethyl)-6-morpholin-4-yl-pyrimidin-2-yl]phenyl]acetamide]	5.79
CS(=O)(=O)Cc1cc(N2CCOCC2)nc(-c2ccc(NC(=O)CN3CCCC3=O)cc2)n1 [Example 5aj, N-[4-[4-(methylsulfonylmethyl)-6-morpholin-4-yl-pyrimidin-2-yl]phenyl]-2-(2-oxopyrrolidin-1-yl)acetamide]	5.01
CS(=O)(=O)Cc1cc(N2CCOCC2)nc(-c2ccc(NC(=O)Cc3ncccn3)cc2)n1 [Example 5ak, N-[4-[4-(methylsulfonylmethyl)-6-morpholin-4-yl-pyrimidin-2-yl]phenyl]-2-pyrimidin-2-yl-acetamide]	5.11

More lines, now with the values ahead:

pIC50	Structure (SMILES)
5.40	CC(C)(C(N)=O)C(=O)Nc1ccc(-c2nc(CS(C)(=O)=O)cc(N3CCOCC3)n2)cc1 [Example 5al, 2,2-dimethyl-N′-[4-[4-(methylsulfonylmethyl)-6-morpholin-4-yl-pyrimidin-2-yl]phenyl]propanediamide]
5.04	CS(=O)(=O)Cc1cc(N2CCOCC2)nc(-c2ccc(NC(=O)CN3CCOCC3)cc2)n1 [Example 5am, N-[4-[4-(methylsulfonylmethyl)-6-morpholin-4-yl-pyrimidin-2-yl]phenyl]-2-morpholin-4-yl-acetamide]
4.53	Cc1ccn(CC(=O)Nc2ccc(-c3nc(CS(C)(=O)=O)cc(N4CCOCC4)n3)cc2)n1 [Example 5an, 2-(3-methylpyrazol-1-yl)-N-[4-[4-(methylsulfonylmethyl)-6-morpholin-4-yl-pyrimidin-2-yl]phenyl]acetamide]
6.26	CS(=O)(=O)Cc1cc(N2CCOCC2)nc(-c2ccc(NC(=O)c3cncs3)cc2)n1 [Example 5ao, N-[4-[4-(methylsulfonylmethyl)-6-morpholin-4-yl-pyrimidin-2-yl]phenyl]-1,3-thiazole-5-carboxamide]
4.49	CO[C@H](C)C(=O)Nc1ccc(-c2nc(CS(C)(=O)=O)cc(N3CCOCC3)n2)cc1 [Example 5ap, (2R)-2-methoxy-N-[4-[4-(methylsulfonylmethyl)-6-morpholin-4-yl-pyrimidin-2-yl]phenyl]propanamide]
6.22	CS(=O)(=O)Cc1cc(N2CCOCC2)nc(-c2ccc(NC(=O)CC(F)(F)F)cc2)n1 [Example 5aq, 3,3,3-trifluoro-N-[4-[4-(methylsulfonylmethyl)-6-morpholin-4-yl-pyrimidin-2-yl]phenyl]propanamide]
5.97	CS(=O)(=O)Cc1cc(N2CCOCC2)nc(-c2ccc(NC(=O)C(F)F)cc2)n1 [Example 5ar, 2,2-difluoro-N-[4-[4-(methylsulfonylmethyl)-6-morpholin-4-yl-pyrimidin-2-yl]phenyl]acetamide]
6.44	CS(=O)(=O)Cc1cc(N2CCOCC2)nc(-c2ccc(NC(=O)c3csnn3)cc2)n1 [Example 5as, N-[4-[4-(methylsulfonylmethyl)-6-morpholin-4-yl-pyrimidin-2-yl]phenyl]thiadiazole-4-carboxamide]
6.00	CS(=O)(=O)Cc1cc(N2CCOCC2)nc(-c2ccc(NC(=O)C3(C#N)CC3)cc2)n1 [Example 5at, 1-cyano-N-[4-[4-(methylsulfonylmethyl)-6-morpholin-4-yl-pyrimidin-2-yl]phenyl]cyclopropane-1-carboxamide]
6.78	CS(=O)(=O)Cc1cc(N2CCOCC2)nc(-c2ccc(NC(=O)CCC#N)cc2)n1 [Example 5au, 3-cyano-N-[4-[4-(methylsulfonylmethyl)-6-morpholin-4-yl-pyrimidin-2-yl]phenyl]propanamide]
6.17	CCCC(=O)Nc1ccc(-c2nc(CS(C)(=O)=O)cc(N3CCOCC3)n2)cc1 [Example 5b, N-[4-[4-(methylsulfonylmethyl)-6-morpholin-4-yl-pyrimidin-2-yl]phenyl]butanamide]
5.86	CC(=O)NCC(=O)Nc1ccc(-c2nc(CS(C)(=O)=O)cc(N3CCOCC3)n2)cc1 [Example 5c, N-[[4-[4-(methylsulfonylmethyl)-6-morpholin-4-yl-pyrimidin-2-yl]phenyl]carbamoylmethyl] acetamide]
5.14	CC(=O)NC(C)C(=O)Nc1ccc(-c2nc(CS(C)(=O)=O)cc(N3CCOCC3)n2)cc1 (centres unmarked) [Example 5d, 2-acetamido-N-[4-[4-(methylsulfonylmethyl)-6-morpholin-4-yl-pyrimidin-2-yl]phenyl]propanamide]
5.75	CS(=O)(=O)CC(=O)Nc1ccc(-c2nc(CS(C)(=O)=O)cc(N3CCOCC3)n2)cc1 [Example 5e, 2-methylsulfonyl-N-[4-[4-(methylsulfonylmethyl)-6-morpholin-4-yl-pyrimidin-2-yl]phenyl]acetamide]
